In one data set the target is T1, authentic hPin1 (Homo sapiens, UniProt Q13526).
T1 construct: endogenous in cells; host or cells: HeLa cell lysate
The data set can be described thus: Pull down assay, HeLa cell lysate. The class given is binding. Conditions: streptavidin sepharose. The method, then:
(§1) FIGS. 5A-B depict pull down assays showing peptide 16 binds to authentic XlPin1 (A) and hPin1 from HeLa cells (B). FIG. 5A depicts the indicated concentrations of peptide 16 were incubated with X. laevis embryo extract in the absence of phosphatase inhibitors. Peptide 16/XlPin1-complex was then extracted from the respective mixture using streptavidin sepharose. Samples were analyzed regarding coextracted XlPin1 by SDS PAGE followed by western blot analysis. Untreated lysate (input) was loaded as a control. Authentic XlPin1 was detected using an anti hPin1 PPIase domain antiserum followed by incubation with a horseradish peroxidase-conjugated secondary antibody. Visualization was done using the SuperSignal® substrate. FIG. 5B indicates concentrations of peptide 16 were incubated with HeLa cell lysate in the absence of phosphatase inhibitors. The peptide 16/hPin1-complex was then precipitated from the respective mixture using streptavidin sepharose and isolated from the supernatant. Extracted proteins and the supernatants were then analyzed by SDS PAGE. […] After western blotting, hPin1 was detected using an anti hPin1 PPIase domain antiserum as primary antibody and a horseradish peroxidase-conjugated secondary antibody. […]
(§2) Peptide 16 (see Table III) was incubated with HeLa cell or X. laevis embryo lysate for 1 hour at 4° C. […] The samples were then heated to 95° C. and analyzed by SDS PAGE. […]

Another data set has as its system X. laevis embryos. In words: Microinjection in X. laevis embryos, cell division. The following applies: microinjection at stage 2. The class given is in vivo. The method, then:
FIG. 8 depicts the blocking of cell division by the injection of peptide 17 in X. laevis embryos. 50-300 pmol of peptide 17 or 300 pmol of its nonphosphorylated derivative (control) dissolved in 10 nl PBS buffer were microinjected in the animal half of X. laevis embryos at stage 2 of development. Embryos with large and/or apoptotic appearing cells surrounded by normally developing cells were counted after further 5 hours (stage 8-9) of development. […] Each value is the average of four independent experiments.
FIGS. 9A-F depicts phenotypic analysis of X. laevis embryos after injection of peptide 17. 300 pmol of peptide 17 or its nonphosphorylated derivative dissolved in 10 nl PBS buffer were injected in the animal half of X. laevis embryos at stage 2 of development. 1.5 hour at stage 6 (A), 2.5 hours at stage 7 (B) and 4-5 hours at stage 8-9 (C, D) after injection enlarged cells became visible. Cells that are blocked in cell division are marked with a white arrow. Controls of uninjected embryos of stage 8-9 and embryos that were injected with 300 pmol of the nonphosphorylated derivative of peptide 17 are shown in panels E and F. The site where the nonphosphorylated derivative of peptide 17 was injected is marked with a white arrow (F).
FIGS. 10A-D depict the rescue of peptide 17 caused cell division block in X. laevis embryos by hPin1 (A, B) and different hPin1 variants (C, D). FIG. 10A depicts the time course of V5-tagged hPin1 expression was analyzed by preparation of X. laevis embryo lysate 1, 2 and 4 hours after injection of 1, 2 or 3 ng of V5-tagged hPin1 mRNA. In every case, the injected volume was 10 nl. Lysates were prepared in lysis buffer containing phosphatase and protease inhibitors. Samples were separated by SDS PAGE followed by western blotting. Endogenous XlPin1 and V5-tagged hPin1 were detected using an anti hPin1 PPIase domain antiserum as primary antibody followed by incubation with a horseradish peroxidase-conjugated secondary antibody. Visualization was done using the SuperSignal® substrate. […] In every case, the whole volume of injection was 10 nl. The indicated amount of the mRNA was injected in the animal half of 30 embryos at stage 2 of development. Embryos with large and/or apoptotic appearing cells surrounded by normally developed cells were counted after additional 5 hours of development (stage 8-9). […] Each percentage of vital embryos shown in the figure is the average of four independent experiments. FIG. 10C indicates the expression of V5-tagged hPin1 variants was evaluated by preparation of embryo lysate after 4 hours of injection of the respective mRNA (2 ng) in X. laevis embryos. Lysates were prepared in lysis buffer containing phosphatase and protease inhibitors. Samples were separated using SDS PAGE followed by western blot analysis. Endogenous XlPin1 and injected V5-tagged hPin1 variants were detected using an anti hPin1 PPIase domain antiserum as primary antibody and a horseradish peroxidase-conjugated secondary antibody. Visualization was done by a chemiluminescent reaction using the SuperSignal® substrate (Pierce). FIG. 10D depicts 250 pmol of peptide 17 was coinjected with 2 ng mRNA of the indicated V5-tagged hPin1 variant (whole volume 10 nl) in the animal half of 30 X. laevis embryos at stage 2 of development. Results were analyzed as described for FIG. 10B. Each percentage of vital embryos shown in the figure is the average of four independent experiments.
Microinjection was done into the animal half of X. laevis embryos at stage 2 of development. In every case, the injection volume was 10 nl. Immunofluorescence studies of frozen X. laevis embryo sections were performed as previously described (Julius et al., 2000). Ten-micrometer cryosections of stage 8 embryos were labelled using a monoclonal anti hPin1 antibody (mouse) followed by incubation with Alexa Fluor 546™-conjugated anti mouse antibody of goat serum (Molecular Probes). […]

The nature of data set [1]: Stability against cellular phosphatases and proteases in HeLa cell lysate. Type of data set: in vitro ADME. The following applies: discussion statement (FIG. 4). The method, then:
FIG. 4 depicts the stability of peptide 17 against cellular phosphatases and proteases. Peptide 17 was incubated for 3 hours in HeLa cell lysate in the absence of phosphatase and protease inhibitors. The mixture was then analyzed by capillary electrophoresis (short dashed line). As controls, the untreated peptide 17 (solid line) and its nonphosphorylated derivative (dotted line) were used. The temperature of the capillary thermostating system was kept at 16° C. Separation buffer was 50 mM sodium phosphate, pH 7.0. Signals were detected at 220 nm.
Peptide 17 was incubated with HeLa cell lysate for 3 h and analyzed with capillary electrophoresis using UV detection at 220 nm on a P/ACE MDQ (Beckman Coulter, Palo Alto, Calif.) system. Fused-silica capillaries (Polymicro Technologies) of 40 cm length at an operation voltage of 20 kV were used. As references, untreated peptide 17 and its nonphosphorylated derivative were used. The samples were hydrodynamically injected with 3.45 kPa for 10 s. 50 mM sodium phosphate buffer (pH 7.0) was used as separation buffer. The system temperature was kept at 16° C.
The stability of peptides 15 and 17 in cytoplasmic extracts from HeLa cells was investigated using MALDI-TOF mass spectrometry and capillary electrophoresis, respectively. In the cytosolic incubation mixture, streptavidin sepharose beads served to isolate peptide 15 fragments after prolonged incubation. […] Therefore, phosphopeptides are useless for evaluating Pin1 functions in vivo unless dephosphorylation can be avoided.

The test system of the next data set is authentic XlPin1. In words: Pull down assay, X. laevis embryo lysate. The class given is binding. Conditions: no phosphatase inhibitors, streptavidin sepharose. The method, then:
as §1, §2

The next data set deals with endogenous XlPin1. In words: Immunofluorescence of microinjected X. laevis embryos. Type of data set: in vivo. The following applies: stage 8. The method, then: FIG. 11 depicts the colocalization of peptide 16 and endogenous XlPin1 in X. laevis embryos. 100 pmol and 250 pmol of peptide 16 dissolved in 10 nl PBS buffer were injected in X. laevis embryos at stage 2 of development. In a control experiment, 10 nl of the pure PBS buffer were injected. Embryos were fixed at stage 8, embedded and cryosectioned. Peptide 16 is stained in green using the Oregon Green™ 488-labeled NeutrAvidin biotin-binding protein. Endogenous XlPin1 is stained in red using a monoclonal anti hPin1 antibody (mAb hPin1) from mouse and an Alexa Fluor 546™-conjugated secondary antibody. Overlapping patterns are shown in yellow in the merged images. Nuclei are stained with DAPI.
Microinjection was done into the animal half of X. laevis embryos at stage 2 of development. In every case, the injection volume was 10 nl. Immunofluorescence studies of frozen X. laevis embryo sections were performed as previously described (Julius et al., 2000). Ten-micrometer cryosections of stage 8 embryos were labelled using a monoclonal anti hPin1 antibody (mouse) followed by incubation with Alexa Fluor 546™-conjugated anti mouse antibody of goat serum (Molecular Probes). […] Samples were analyzed using an Axioplan epifluorescence microscope with fluorescein and Cy3 selective filter sets. […]

Structures are written as SMILES. Square brackets hold non-standard residues; d marks the D form. Peptide text beside a SMILES is read from it. * marks the point of attachment. Biotin = O=C1N[C@H]2[C@H](CS[C@H]2CCCCC(=O)*)N1; d(pT) = C[C@H](OP(=O)(O)O)[C@@H](N)C(=O)O; 2Nal = N[C@@H](Cc1ccc2ccccc2c1)C(=O)O; Bta = N[C@@H](Cc1csc2ccccc12)C(=O)O; Pip = O=C(O)[C@@H]1CCCCN1

T1 sequence (Q13526 whole entry): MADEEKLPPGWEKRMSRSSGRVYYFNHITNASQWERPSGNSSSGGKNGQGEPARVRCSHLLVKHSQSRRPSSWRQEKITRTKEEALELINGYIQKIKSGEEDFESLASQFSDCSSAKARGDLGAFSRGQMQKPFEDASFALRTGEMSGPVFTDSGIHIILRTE

Consider `CC(=O)N[C@@H](CCCCNC(=O)CCCC[C@@H]1SC[C@@H]2NC(=O)N[C@@H]21)C(=O)N[C@@H](C)C(=O)N[C@@H](C)C(=O)N[C@@H](Cc1csc2ccccc12)C(=O)N[C@@H](C(=O)N1CCCC[C@H]1C(=O)N[C@@H](Cc1ccc2ccccc2c1)C(=O)N[C@@H](CCC(N)=O)C(N)=O)[C@H](C)OP(=O)(O)O` [Peptide 16, Ac-Lys(N^ε-biotinoyl)-Ala-Ala-Bth-D-Thr(PO3H2)-Pip-Nal-Gln-NH2] (Ac-K(Biotin)AA[Bta][d(pT)][Pip][2Nal]Q-NH2), for which the “pull down of authentic hPin1” value at authentic hPin1 is “pulled down”. Besides, in the data set on X. laevis embryos, the “effect on development of the embryos” value was “cell cycle blockage and embryonic death”. The stability in cytosol entry in data set [1] is reported as “sufficiently stable”. For the same compound, the “coprecipitation of authentic XlPin1” value in the data set on authentic XlPin1 is reported as “coprecipitated with peptide 16 in a dose-dependent manner”. Also, the “colocalization with XlPin1” value in the data set on endogenous XlPin1 (100 pmol injected) is recorded as “clear nuclear colocalization”. Further, in the data set with endogenous XlPin1 (250 pmol injected), the “effect on embryonic tissue” value is “distortions of the embryonic tissue”.

These data come from patent publication US8258099B2, “Pin1-modulating compounds and methods of use thereof” (Max-Planck-Gesellschaft zur Foerderung der Wissenschaften …, priority 2004, dated 2012).
